A short description of the data set: Stability of hydrochloride salts of telavancin on storage (HPLC area % of pseudoaglycone and aglycone impurities). The data set is classed as physicochemical. The note with it: for Aglycone of Cmpd 1 (HPLC area %) Initial / Pseudoaglycone of Cmpd 1 (HPLC area %) Initial: before storage at 25° C.; for Aglycone of Cmpd 1 (HPLC area %) 2 Week / Pseudoaglycone of Cmpd 1 (HPLC area %) 2 Week: stored at 25° C. for 2 weeks, glass vials; for Aglycone of Cmpd 1 (HPLC area %) 2-Week Change / Pseudoaglycone of Cmpd 1 (HPLC area %) 2-Week Change: stored at 25° C., difference between 2-week and initial value. On the procedure:
In the examples described below, HPLC sample analysis was conducted using an Agilent (Palo Alto, Calif.) Series 1100 instrument with Zorbax RP-Bonus 4.6 mm×250 mm columns, supplied by Agilent, having a 5 micron pore size, packed on C14 silica. Detection was by UV absorbance at 254 nm. Mobile phase A was 2%-98%-0.1% ACN-H2O-TFA; and mobile phase B was 90%-10%-0.1% ACN-H2O-TFA. A flow rate of 1.0 mL/min was used with moble phase A containing a gradient of mobile phase B as follows: 10 to 43% B for 30 min;, 43% B for 5 min; 43 to 100% B for 5 min; 100 to 10% B for 1 min; and 10% B for 14 min.
The effect of chloride ion content on the stability of hydrochloride salts of telavancin stored at −20° C., 5° C. and 25° C. was determined.
Eight lots of telavancin hydrochloride salts prepared as described in Example 2 were placed in identical glass vials and stored at −20° C., 5° C. and 25° C. under otherwise identical conditions for two weeks. The changes in HPLC area % for the pseudoaglycone and aglycone impurities were used to evaluate relative stability.
For each sample, the pH of the mixture from which it was isolated, is indicated. The column entitled, “2 Week Change” is the difference in HPLC area % between the value observed after two weeks and the initial value and is graphically illustrated in FIGS. 1 and 2.

SMILES strings stand for the structures.

For `CCCCCCCCCCNCCN[C@@]1(C)C[C@H](O[C@H]2[C@H](Oc3c4cc5cc3Oc3ccc(cc3Cl)[C@@H](O)[C@@H](NC(=O)[C@@H](CC(C)C)NC)C(=O)N[C@@H](CC(N)=O)C(=O)N[C@H]5C(=O)N[C@H]3C(=O)N[C@H](C(=O)N[C@H](C(=O)O)c5cc(O)c(CNCP(=O)(O)O)c(O)c5-c5cc3ccc5O)[C@H](O)c3ccc(c(Cl)c3)O4)O[C@H](CO)[C@@H](O)[C@@H]2O)O[C@@H](C)[C@H]1O` [2.42, telavancin], the “Aglycone of Cmpd 1 (HPLC area %) Initial” value is on record as 0.03 HPLC area %, the “Pseudoaglycone of Cmpd 1 (HPLC area %) Initial” value was found to be 0.32 HPLC area %, the “Aglycone of Cmpd 1 (HPLC area %) 2 Week” value was 0.05 HPLC area % and the “Pseudoaglycone of Cmpd 1 (HPLC area %) 2 Week” value amounted to 0.40 HPLC area %. In addition, the “Aglycone of Cmpd 1 (HPLC area %) 2-Week Change” value is “+0.02 HPLC area %” and the “Pseudoaglycone of Cmpd 1 (HPLC area %) 2-Week Change” value is given as “+0.08 HPLC area %”.

With `CCCCCCCCCCNCCN[C@@]1(C)C[C@H](O[C@H]2[C@H](Oc3c4cc5cc3Oc3ccc(cc3Cl)[C@@H](O)[C@@H](NC(=O)[C@@H](CC(C)C)NC)C(=O)N[C@@H](CC(N)=O)C(=O)N[C@H]5C(=O)N[C@H]3C(=O)N[C@H](C(=O)N[C@H](C(=O)O)c5cc(O)c(CNCP(=O)(O)O)c(O)c5-c5cc3ccc5O)[C@H](O)c3ccc(c(Cl)c3)O4)O[C@H](CO)[C@@H](O)[C@@H]2O)O[C@@H](C)[C@H]1O` [3.68, telavancin], the “Aglycone of Cmpd 1 (HPLC area %) Initial” value is on record as 0.06 HPLC area %, the “Pseudoaglycone of Cmpd 1 (HPLC area %) Initial” value came to 0.43 HPLC area %, the “Aglycone of Cmpd 1 (HPLC area %) 2 Week” value is 0.08 HPLC area % and the “Pseudoaglycone of Cmpd 1 (HPLC area %) 2 Week” value is 0.51 HPLC area %. The “Aglycone of Cmpd 1 (HPLC area %) 2-Week Change” value was “+0.02 HPLC area %” and the “Pseudoaglycone of Cmpd 1 (HPLC area %) 2-Week Change” value is “+0.08 HPLC area %”.

As for `CCCCCCCCCCNCCN[C@@]1(C)C[C@H](O[C@H]2[C@H](Oc3c4cc5cc3Oc3ccc(cc3Cl)[C@@H](O)[C@@H](NC(=O)[C@@H](CC(C)C)NC)C(=O)N[C@@H](CC(N)=O)C(=O)N[C@H]5C(=O)N[C@H]3C(=O)N[C@H](C(=O)N[C@H](C(=O)O)c5cc(O)c(CNCP(=O)(O)O)c(O)c5-c5cc3ccc5O)[C@H](O)c3ccc(c(Cl)c3)O4)O[C@H](CO)[C@@H](O)[C@@H]2O)O[C@@H](C)[C@H]1O` [3.94, telavancin], the “Aglycone of Cmpd 1 (HPLC area %) Initial” value came to 0.04 HPLC area %, the “Pseudoaglycone of Cmpd 1 (HPLC area %) Initial” value was 0.43 HPLC area %, the “Aglycone of Cmpd 1 (HPLC area %) 2 Week” value worked out at 0.09 HPLC area % and the “Pseudoaglycone of Cmpd 1 (HPLC area %) 2 Week” value is given as 0.56 HPLC area %. Moreover, the “Aglycone of Cmpd 1 (HPLC area %) 2-Week Change” value was “+0.05 HPLC area %” and the “Pseudoaglycone of Cmpd 1 (HPLC area %) 2-Week Change” value is given as “+0.13 HPLC area %”.

Turning to `CCCCCCCCCCNCCN[C@@]1(C)C[C@H](O[C@H]2[C@H](Oc3c4cc5cc3Oc3ccc(cc3Cl)[C@@H](O)[C@@H](NC(=O)[C@@H](CC(C)C)NC)C(=O)N[C@@H](CC(N)=O)C(=O)N[C@H]5C(=O)N[C@H]3C(=O)N[C@H](C(=O)N[C@H](C(=O)O)c5cc(O)c(CNCP(=O)(O)O)c(O)c5-c5cc3ccc5O)[C@H](O)c3ccc(c(Cl)c3)O4)O[C@H](CO)[C@@H](O)[C@@H]2O)O[C@@H](C)[C@H]1O` [4.41, telavancin], the “Aglycone of Cmpd 1 (HPLC area %) Initial” value was 0.06 HPLC area %, the “Pseudoaglycone of Cmpd 1 (HPLC area %) Initial” value is listed as 0.42 HPLC area %, the “Pseudoaglycone of Cmpd 1 (HPLC area %) 2 Week” value came out at 0.53 HPLC area % and the “Pseudoaglycone of Cmpd 1 (HPLC area %) 2-Week Change” value is reported as “+0.11 HPLC area %”.

As for `CCCCCCCCCCNCCN[C@@]1(C)C[C@H](O[C@H]2[C@H](Oc3c4cc5cc3Oc3ccc(cc3Cl)[C@@H](O)[C@@H](NC(=O)[C@@H](CC(C)C)NC)C(=O)N[C@@H](CC(N)=O)C(=O)N[C@H]5C(=O)N[C@H]3C(=O)N[C@H](C(=O)N[C@H](C(=O)O)c5cc(O)c(CNCP(=O)(O)O)c(O)c5-c5cc3ccc5O)[C@H](O)c3ccc(c(Cl)c3)O4)O[C@H](CO)[C@@H](O)[C@@H]2O)O[C@@H](C)[C@H]1O` [4.59, telavancin], the “Aglycone of Cmpd 1 (HPLC area %) Initial” value is 0.10 HPLC area %, the “Pseudoaglycone of Cmpd 1 (HPLC area %) Initial” value came out at 0.52 HPLC area %, the “Aglycone of Cmpd 1 (HPLC area %) 2 Week” value is on record as 0.17 HPLC area % and the “Pseudoaglycone of Cmpd 1 (HPLC area %) 2 Week” value amounted to 0.72 HPLC area %. Also, the “Aglycone of Cmpd 1 (HPLC area %) 2-Week Change” value is given as “+0.07 HPLC area %” and the “Pseudoaglycone of Cmpd 1 (HPLC area %) 2-Week Change” value is “+0.20 HPLC area %”.

As for `CCCCCCCCCCNCCN[C@@]1(C)C[C@H](O[C@H]2[C@H](Oc3c4cc5cc3Oc3ccc(cc3Cl)[C@@H](O)[C@@H](NC(=O)[C@@H](CC(C)C)NC)C(=O)N[C@@H](CC(N)=O)C(=O)N[C@H]5C(=O)N[C@H]3C(=O)N[C@H](C(=O)N[C@H](C(=O)O)c5cc(O)c(CNCP(=O)(O)O)c(O)c5-c5cc3ccc5O)[C@H](O)c3ccc(c(Cl)c3)O4)O[C@H](CO)[C@@H](O)[C@@H]2O)O[C@@H](C)[C@H]1O` [4.69, telavancin], the “Aglycone of Cmpd 1 (HPLC area %) Initial” value is on record as 0.07 HPLC area %, the “Pseudoaglycone of Cmpd 1 (HPLC area %) Initial” value came out at 0.45 HPLC area %, the “Aglycone of Cmpd 1 (HPLC area %) 2 Week” value was determined as 0.13 HPLC area % and the “Pseudoaglycone of Cmpd 1 (HPLC area %) 2 Week” value came out at 0.62 HPLC area %. The “Aglycone of Cmpd 1 (HPLC area %) 2-Week Change” value is recorded as “+0.06 HPLC area %” and the “Pseudoaglycone of Cmpd 1 (HPLC area %) 2-Week Change” value is reported as “+0.17 HPLC area %”.

Turning to `CCCCCCCCCCNCCN[C@@]1(C)C[C@H](O[C@H]2[C@H](Oc3c4cc5cc3Oc3ccc(cc3Cl)[C@@H](O)[C@@H](NC(=O)[C@@H](CC(C)C)NC)C(=O)N[C@@H](CC(N)=O)C(=O)N[C@H]5C(=O)N[C@H]3C(=O)N[C@H](C(=O)N[C@H](C(=O)O)c5cc(O)c(CNCP(=O)(O)O)c(O)c5-c5cc3ccc5O)[C@H](O)c3ccc(c(Cl)c3)O4)O[C@H](CO)[C@@H](O)[C@@H]2O)O[C@@H](C)[C@H]1O` [5.60, telavancin], the “Aglycone of Cmpd 1 (HPLC area %) Initial” value amounted to 0.15 HPLC area %, the “Pseudoaglycone of Cmpd 1 (HPLC area %) Initial” value was found to be 0.48 HPLC area %, the “Aglycone of Cmpd 1 (HPLC area %) 2 Week” value worked out at 0.41 HPLC area % and the “Pseudoaglycone of Cmpd 1 (HPLC area %) 2 Week” value is 1.11 HPLC area %.

As to `CCCCCCCCCCNCCN[C@@]1(C)C[C@H](O[C@H]2[C@H](Oc3c4cc5cc3Oc3ccc(cc3Cl)[C@@H](O)[C@@H](NC(=O)[C@@H](CC(C)C)NC)C(=O)N[C@@H](CC(N)=O)C(=O)N[C@H]5C(=O)N[C@H]3C(=O)N[C@H](C(=O)N[C@H](C(=O)O)c5cc(O)c(CNCP(=O)(O)O)c(O)c5-c5cc3ccc5O)[C@H](O)c3ccc(c(Cl)c3)O4)O[C@H](CO)[C@@H](O)[C@@H]2O)O[C@@H](C)[C@H]1O` [5.74, telavancin], the “Aglycone of Cmpd 1 (HPLC area %) Initial” value was determined as 0.43 HPLC area %, the “Pseudoaglycone of Cmpd 1 (HPLC area %) Initial” value came to 0.89 HPLC area %, the “Aglycone of Cmpd 1 (HPLC area %) 2 Week” value stood at 1.08 HPLC area % and the “Pseudoaglycone of Cmpd 1 (HPLC area %) 2 Week” value was 1.94 HPLC area %.
